# Results published in article PMC9848300, “Discovery of novel enasidenib analogues targeting inhibition of mutant isocitrate dehydrogenase 2 as antileukaemic agents” (Journal of Enzyme Inhibition and Medicinal Chemistry, 2023).
# Read-outs that look alike come from different tables or passages of the source.
# Tests used:
# [1] = test system: MDA-MB-468; assay: NCI 60 antitumor screening (single dose / five doses); format: cell-based; conditions: Homo sapiens
# [2] = test system: ACHN; assay: as above; format: cell-based; conditions: Homo sapiens, read-out: Growth inhibition percentage (GI %)
# [3] = test system: SW-620; assay: as above; format: cell-based, human; conditions: Homo sapiens
# [4] = test system: DU-145; assay: as above; format: cell-based; conditions: Homo sapiens
# [5] = test system: EKVX; assay: as above; format: cell-based; conditions: Homo sapiens, read-out: Growth inhibition percentage (GI %)
# [6] = test system: RXF 393; assay: as above; format: cell-based; conditions: Homo sapiens
# [7] = test system: IGROV1; assay: as above; format: cell-based; conditions: Homo sapiens
# [8] = test system: HOP-92; assay: as above; format: cell-based; conditions: Homo sapiens
# [9] = test system: SK-MEL-5; assay: as above; format: cell-based; conditions: Homo sapiens
# [10] = test system: SF-539; assay: as above; format: cell-based; conditions: Homo sapiens
# [11] = test system: SK-MEL-28; assay: as above; format: cell-based; conditions: Homo sapiens
# [12] = test system: SR; assay: as above; format: cell-based; conditions: Homo sapiens, read-out: Growth inhibition percentage (GI %)
# [13] = test system: A498; assay: as above; format: cell-based; conditions: Homo sapiens
# [14] = test system: MDA-MB-435; assay: as above; format: cell-based; conditions: Homo sapiens
# [15] = test system: NCI/ADR-RES; assay: as above; format: cell-based; conditions: Homo sapiens, read-out: Growth inhibition percentage (GI %)
# [16] = test system: SNB-75; assay: as above; format: cell-based; conditions: Homo sapiens
# [17] = test system: MDA-MB-231/ATCC; assay: as above; format: cell-based; conditions: Homo sapiens
# [18] = test system: UACC-62; assay: as above; format: cell-based; conditions: Homo sapiens
# [19] = test system: SK-OV-3; assay: NCI 60 antitumor screening (single dose); format: cell-based; conditions: Homo sapiens
# Summary of the method: (§1)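 NCI-60 one-dose screen. Dose: 10 μM. Lines: 60 human tumour lines, nine tissue types. Output: GI% = 100 − G%.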
# [20] = test system: NCI-H460; assay: NCI 60 antitumor screening (single dose); format: cell-based; conditions: Homo sapiens; NCI-H460 (non-small cell lung cancer), single dose 10 μM; read-out: Growth inhibition percentage (GI %)
# Summary of the method: as §1
# [21] = test system: PC-3; assay: NCI 60 antitumor screening (single dose); format: cell-based; conditions: Homo sapiens
# Summary of the method: (§2)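 Assessment used the first tier of the NCI 60 screen, one dose of 10 μM per compound. Triplicate experiments gave percent growth of treated cells. Inhibition was then derived as 100 − G%.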
# [22] = test system: HS 578T; assay: NCI 60 antitumor screening (single dose); format: cell-based; conditions: Homo sapiens, read-out: Growth inhibition percentage (GI %)
# Summary of the method: as §2
# [23] = test system: SN 12C; assay: NCI 60 antitumor screening (single dose / five doses); format: cell-based; conditions: Homo sapiens, SN12C, read-out: Growth inhibition percentage (GI %)
# [24] = test system: HT29; assay: as above; format: cell-based, human; conditions: Homo sapiens
# [25] = test system: CCRF-CEM; assay: as above; format: cell-based; conditions: Homo sapiens, read-out: Growth inhibition percentage (GI %)
# [26] = test system: UACC-257; assay: as above; format: cell-based; conditions: Homo sapiens
# [27] = test system: MALME-3M; assay: as above; format: cell-based; conditions: Homo sapiens, read-out: Growth inhibition percentage (GI %)
# [28] = test system: COLO 205; assay: as above; format: cell-based; conditions: Homo sapiens
structure (smiles),measurement,setting,value
"O=[N+]([O-])c1cccc(/C=N/Nc2nc(N/N=C/c3cccc([N+](=O)[O-])c3)nc(N3CCOCC3)n2)c1 [compound 6f, 2-(Morpholin-4-yl)-4,6-bis[(E)-2-[(3-nitrophenyl)methylidene]hydrazin-1-yl]-1,3,5-triazine]",inhibition at 10 µM,"[1]; MDA-MB-468, read-out: Growth inhibition percentage (GI %)",1.3%
same,inhibition at 10 µM,[2]; ACHN,30.2%
same,inhibition at 10 µM,"[3]; SW-620, read-out: Growth inhibition percentage (GI %)",18.4%
same,inhibition at 10 µM,"[4]; DU-145, read-out: Growth inhibition percentage (GI %)",31.1%
same,inhibition at 10 µM,[5]; EKVX,11%
same,inhibition at 10 µM,"[6]; RXF 393, read-out: Growth inhibition percentage (GI %)",28.1%
same,inhibition at 10 µM,"[7]; IGROV-1, read-out: Growth inhibition percentage (GI %)",42.6%
same,inhibition at 10 µM,"[8]; HOP-92, read-out: Growth inhibition percentage (GI %)",14.2%
same,inhibition at 10 µM,"[9]; SK-MEL-5, read-out: Growth inhibition percentage (GI %)",36.9%
same,inhibition at 10 µM,"[10]; SF-539, read-out: Growth inhibition percentage (GI %)",6.2%
same,inhibition at 10 µM,"[11]; SK-MEL-28, read-out: Growth inhibition percentage (GI %)",17.9%
same,inhibition at 10 µM,[12]; SR,66%
same,inhibition at 10 µM,"[13]; A498, read-out: Growth inhibition percentage (GI %)",13.1%
same,inhibition at 10 µM,"[14]; MDA-MB-435, read-out: Growth inhibition percentage (GI %)",9.84%
same,inhibition at 10 µM,[15]; NCI/ADR-RES,30.9%
same,inhibition at 10 µM,"[16]; SNB-75, read-out: Growth inhibition percentage (GI %)",11.2%
same,inhibition at 10 µM,"[17]; MDA-MB-231, read-out: Growth inhibition percentage (GI %)",2.27%
same,inhibition at 10 µM,"[18]; UACC-62, read-out: Growth inhibition percentage (GI %)",21.1%
same,inhibition at 10 µM,"[19]; SK-OV-3, read-out: Growth inhibition percentage (GI %)",-29%
same,inhibition at 10 µM,[20],17%
same,inhibition at 10 µM,"[21]; PC-3, read-out: Growth inhibition percentage (GI %)",37.9%
same,inhibition at 10 µM,[22]; Hs-578T,16.7%
same,inhibition at 10 µM,[23],24.4%
same,inhibition at 10 µM,"[24]; HT-29, read-out: Growth inhibition percentage (GI %)",42.2%
same,inhibition at 10 µM,[25]; CCRF-CEM,58.4%
same,inhibition at 10 µM,"[26]; UACC-257, read-out: Growth inhibition percentage (GI %)",9.17%
same,inhibition at 10 µM,[27]; Malme-3M,6.12%
same,inhibition at 10 µM,"[28]; COLO 205, read-out: Growth inhibition percentage (GI %)",44.2%
"Clc1cccc(/C=N/Nc2nc(N/N=C/c3cccc(Cl)c3Cl)nc(N3CCOCC3)n2)c1Cl [compound 6h, 2,4-Bis[(E)-2-[(2,3-Dichlorophenyl)methylidene]hydrazin-1-yl]-6-(morpholin-4-yl)-1,3,5-triazine]",inhibition at 10 µM,"[1]; MDA-MB-468 (breast cancer), single dose 10 μM, read-out: Growth inhibition percentage (GI %)",32.8%
same,inhibition at 10 µM,"[2]; ACHN (renal cancer), single dose 10 μM",-7.98%
same,inhibition at 10 µM,"[3]; SW-620 (colon cancer), single dose 10 μM, read-out: Growth inhibition percentage (GI %)",-6.25%
same,inhibition at 10 µM,"[4]; DU-145 (prostate cancer), single dose 10 μM, read-out: Growth inhibition percentage (GI %)",-2.63%
same,inhibition at 10 µM,"[5]; EKVX (non-small cell lung cancer), single dose 10 μM",24.4%
same,inhibition at 10 µM,"[6]; RXF 393 (renal cancer), single dose 10 μM, read-out: Growth inhibition percentage (GI %)",5.06%
same,inhibition at 10 µM,"[7]; IGROV-1, IGROV1 (ovarian cancer), single dose 10 μM, read-out: Growth inhibition percentage (GI %)",11.2%
same,inhibition at 10 µM,"[8]; HOP-92 (non-small cell lung cancer), single dose 10 μM, read-out: Growth inhibition percentage (GI %)",-5.67%
same,inhibition at 10 µM,"[9]; SK-MEL-5 (melanoma), single dose 10 μM, read-out: Growth inhibition percentage (GI %)",15.5%
same,inhibition at 10 µM,"[10]; SF-539 (CNS cancer), single dose 10 μM, read-out: Growth inhibition percentage (GI %)",44.2%
same,inhibition at 10 µM,"[11]; SK-MEL-28 (melanoma), single dose 10 μM, read-out: Growth inhibition percentage (GI %)",2.23%
same,inhibition at 10 µM,"[12]; SR (leukaemia), single dose 10 μM",51.9%
same,inhibition at 10 µM,"[13]; A498 (renal cancer), single dose 10 μM, read-out: Growth inhibition percentage (GI %)",-10.5%
same,inhibition at 10 µM,"[14]; MDA-MB-435 (melanoma), single dose 10 μM, read-out: Growth inhibition percentage (GI %)",-6.86%
same,inhibition at 10 µM,"[15]; NCI/ADR-RES (ovarian cancer), single dose 10 μM",34.2%
same,inhibition at 10 µM,"[16]; SNB-75 (CNS cancer), single dose 10 μM, read-out: Growth inhibition percentage (GI %)",-19.6%
same,inhibition at 10 µM,"[17]; MDA-MB-231/ATCC (breast cancer), single dose 10 μM, read-out: Growth inhibition percentage (GI %)",13.8%
same,inhibition at 10 µM,"[18]; UACC-62 (melanoma), single dose 10 μM, read-out: Growth inhibition percentage (GI %)",11.3%
same,inhibition at 10 µM,"[19]; SK-OV-3 (ovarian cancer), single dose 10 μM, read-out: Growth inhibition percentage (GI %)",-15.1%
same,inhibition at 10 µM,[20],-0.07%
same,inhibition at 10 µM,"[21]; PC-3 (prostate cancer), single dose 10 μM, read-out: Growth inhibition percentage (GI %)",14.5%
same,inhibition at 10 µM,"[22]; HS 578T (breast cancer), single dose 10 μM",-8.95%
same,inhibition at 10 µM,"[23]; SN 12C (renal cancer), single dose 10 μM",20.2%
same,inhibition at 10 µM,"[24]; HT-29, HT29 (colon cancer), single dose 10 μM, read-out: Growth inhibition percentage (GI %)",12.9%
same,inhibition at 10 µM,"[25]; CCRF-CEM (leukaemia), single dose 10 μM",16.5%
same,inhibition at 10 µM,"[26]; UACC-257 (melanoma), single dose 10 μM, read-out: Growth inhibition percentage (GI %)",-9.57%
same,inhibition at 10 µM,"[27]; MALME-3M (melanoma), single dose 10 μM",2.72%
same,inhibition at 10 µM,"[28]; COLO 205 (colon cancer), single dose 10 μM, read-out: Growth inhibition percentage (GI %)",7.98%
